According to patent US8530507B2, “Use of levo-ornidazole in the preparation of anti-anaerobic bacteria infection drugs” (priority 2005, dated 2013):

How the values were obtained:
[1] = system: Beagle dogs; details: dog, in vivo, iv, 200 mg/kg
Text: 2. Toxicity Test in Beagle Dogs (Non-Rodent) After Intravenous Administration of L-ornidazole for Two Weeks
Beagle dogs, 4 dogs in each group with half females and half males, were divided into L-, D-, and racemic ornidazole groups.

[2] = In vivo pharmacokinetics in Beagle dogs
Procedure: The clinical dose of ornidazole is 500 mg for human. By calculating, based on body surface area, the pharmacokinetic experimental dose in Beagle dogs was 13 mg/kg in vivo. Six adult beagle dogs (half males and half females, body weight of 9˜11.5 kg) were randomly divided into three groups. According to crossover design, intravenous injection of L-, D-, and racemic ornidazole were administered in turn to each dog every other week (with one week washout period in between). 2 ml of blood was collected from the vein located at the forelimb of the dogs before drug administration and 0.083, 0.5, 1.0, 2.0, 4.0, 6.0, 8.0, 12.0, 16.0, 24.0 hours after drug administration, which was then placed in the heparinized tube, followed by centrifugation to obtain the plasma. Plasma concentration of drug was determined by HPLC. Pharmacokinetics parameters were estimated using the non-compartmental models. The corresponding pharmacokinetics parameters were obtained by BAPP2.0 using the data of plasma concentration of blood with time obtained above.

[3] = system: Kunming mice; assay: Acute toxicology test, LD50 in mice (Bliss method); assay type: in vivo; details: for LD50: observed 14 days; for Number of dead animals: 10 animals
Procedure: Kunming mice, half males and half females, with body weights of 18˜22 g, were administered the testing drug solution by injection 8 hours after fasting. The death status of animals was consecutively observed for 14 days after administration.

[4] = system: Kunming mice; assay: Acute toxicology test, LD50 in mice (Bliss method); assay type: in vivo; details: oral gavage; for Number of dead animals: 10 animals
[5] = system: mice; assay: Effect on the coordination of balancing in mice; assay type: in vivo; details: intravenous injection
Procedure: Experiments were conducted in 9 administration groups, L-, D- and racemic ornidazole were administered to them at doses of 40, 80 and 160 mg/kg. Positive control group received chlorpromazine at a dose of 3 mg/kg.

[6] = system: mice; assay: Effect on the hypnotic effect induced by sodium thiopental in mice; details: 40 mg/kg sodium thiopental i.p. 30 minutes later
Procedure: The same volume of 0.9% sodium chloride injection containing propylene glycol was administered in the vehicle control group. 30 minute after drug administration, 40 mg/kg of sodium thiopental was administered to mice by intraperitoneal injection. The time for the loss of righting reflex and the time for the recovery were recorded. The injection volume was 0.2 ml/10 g, the administration rate was 0.2 ml/10 sec.

[7] = system: mice; assay: Hypnotic effect of intravenous injection in mice (righting reflex); assay type: in vivo; details: mice, within 30 minutes
Procedure: White mice, half males and half females, fasted for eight hours. The disappearance of righting reflex in mice was observed. The number of animals who lost their righting reflex was recorded in 30 minutes after drug administration.

[8] = system: mice; assay: Effects on spontaneous activities in mice; assay type: in vivo; details: for spontaneous activity compared with the vehicle control group: recorded at 0.5, 1, 2, 3 and 4 hours
Procedure: Chlorpromazine was administered at dose of […] in the positive control group, and the same volume of propylene glycol containing 0.9% sodium chloride injection was administered in the vehicle control group. Spontaneous activity was recorded at 0.5, 1, 2, 3 and 4 hours after drug administration. The injection volume was 0.2 ml/10 g and the administration rate was 0.2 ml/10 sec.

[9] = system: bacteroides (including Escherichia coli) infection; assay: Abdominal infection model in mice, ED50; assay type: in vivo, Kunming white mice; details: death observed 7 days
Procedure: (§1) Kunming white mice, body weight of 20±2 g, half males and half females. 10 mice in each dose group with half females and half males. Abdominal infection models were prepared with the entire animal (mice) and treatments were conducted with the testing drugs. The therapeutical efficacy was observed and expressed as ED50 (half effective dose). Drugs were administered twice by oral gavage (administered immediately after infection for one and 6 hours after infection for the other one). The death status of animals was observed consecutively for seven days after infection and being treated.

[10] = system: peptostreptococcus (including Escherichia coli); assay: Abdominal infection model in mice, ED50; assay type: in vivo, Kunming white mice; details: death observed 7 days
Procedure: as §1

[11] = beagle dogs, individual intravenous dose 13 mg/kg, plasma
[12] = oral gavage twice (immediately and 6 hours after infection)

Compound: Cc1ncc([N+](=O)[O-])n1C[C@H](O)CCl [L-ornidazole, 1-(3-chloro-2-S-(−)-hydroxypropyl)-2-methyl-5-nitroimidazole]
- food intake and body weight [1]: Food intake of testing animals was inhibited while body weight of the testing animals was inhibited to a certain extent
- histological examination of organs [1]: Significant pathological changes were not found
- manifestations (toxicity and side effects) [1]: merely drooling, vomiting, involuntary urination and the like
- recovery time of manifestations [1]: 1 to 2 h
- toxic effects [1]: significant toxic effects were not observed
- AUC0-t (area under curve) [2, 11]: 90940 ± 8330 ng·h/mL
- Cl (clearance) [2, 11]: 1.22 ± 0.13 L/h
- MRT (mean retention time of drugs) [2, 11]: 10.06 ± 1.57 h
- Vβ (elimination volume of distribution) [2, 11]: 12.23 ± 1.84 L
- t1/2 (half life) ([2]; beagle dogs, individual intravenous dose 13 mg/kg, plasma, HPLC, non-compartmental): 6.97 ± 1.09 h
- in vivo transformation of enantiomers between L- and D-ornidazole ([2]; dog, in vivo, iv): not occurred
- LD50 ([3]; intraperitoneal injection): 1378 mg/kg
- Death rate ([3]; intraperitoneal, 1044 mg/kg): 0%
- Probability units (Y) ([3]; intraperitoneal, 1044 mg/kg): 3.27
- Number of dead animals ([3]; intraperitoneal, 1044 mg/kg): 0
- Death rate ([3]; intraperitoneal, 1228 mg/kg): 30%
- Probability units (Y) ([3]; intraperitoneal, 1228 mg/kg): 4.24
- Number of dead animals ([3]; intraperitoneal, 1228 mg/kg): 3
- Death rate ([3]; intraperitoneal, 1445 mg/kg): 60%
- Probability units (Y) ([3]; intraperitoneal, 1445 mg/kg): 5.20
- Number of dead animals ([3]; intraperitoneal, 1445 mg/kg): 6
- Death rate ([3]; intraperitoneal, 1700 mg/kg): 90%
- Probability units (Y) ([3]; intraperitoneal, 1700 mg/kg): 6.17
- Number of dead animals ([3]; intraperitoneal, 1700 mg/kg): 9
- Death rate ([3]; intraperitoneal, 2000 mg/kg): 100%
- Probability units (Y) ([3]; intraperitoneal, 2000 mg/kg): 7.13
- Number of dead animals ([3]; intraperitoneal, 2000 mg/kg): 10
- LD50 ([3]; intravenous injection): 332 mg/kg
- Death rate ([3]; intravenous, 243 mg/kg): 0%
- Probability units (Y) ([3]; intravenous, 243 mg/kg): 1.06
- Number of dead animals ([3]; intravenous, 243 mg/kg): 0
- Death rate ([3]; intravenous, 270 mg/kg): 0%
- Probability units (Y) ([3]; intravenous, 270 mg/kg): 3.04
- Number of dead animals ([3]; intravenous, 270 mg/kg): 0
- Death rate ([3]; intravenous, 300 mg/kg): 20%
- Probability units (Y) ([3]; intravenous, 300 mg/kg): 3.72
- Number of dead animals ([3]; intravenous, 300 mg/kg): 2
- Death rate ([3]; intravenous, 333 mg/kg): 30%
- Probability units (Y) ([3]; intravenous, 333 mg/kg): 5.05
- Number of dead animals ([3]; intravenous, 333 mg/kg): 3
- Death rate ([3]; intravenous, 370 mg/kg): 100%
- Probability units (Y) ([3]; intravenous, 370 mg/kg): 6.38
- Number of dead animals ([3]; intravenous, 370 mg/kg): 10
- Death rate ([3]; oral gavage, 655.4 mg/kg): 0%
- Probability units (Y) ([3]; oral gavage, 655.4 mg/kg): 2.87
- Death rate ([3]; oral gavage, 819.2 mg/kg): 10%
- Probability units (Y) ([3]; oral gavage, 819.2 mg/kg): 3.86
- Death rate ([3]; oral gavage, 1024 mg/kg): 40%
- Probability units (Y) ([3]; oral gavage, 1024 mg/kg): 4.86
- Probability units (Y) ([3]; oral gavage, 1280 mg/kg): 5.86
- Death rate ([3]; oral gavage, 1600 mg/kg): 100%
- Number of dead animals ([3]; oral gavage, 1600 mg/kg): 10
- LD50 ([3]; oral gavage): 1069 mg/kg
- Number of dead animals ([4]; 655.4 mg/kg): 0
- Number of dead animals ([4]; 819.2 mg/kg): 1
- Number of dead animals ([4]; 1024 mg/kg): 4
- Death rate ([4]; 1280 mg/kg): 80%
- Number of dead animals ([4]; 1280 mg/kg): 8
- Probability units (Y) ([4]; 1600 mg/kg): 6.96
- effect on the coordination and balance (number of falling animals) ([5]; 160 mg/kg): no significant effect
- effect on the coordination and balance, compared with the vehicle control group ([5]; doses of 40 and 80 mg/kg): no significant effect
- duration of sleeping induced by sodium thiopental, compared with the vehicle control group ([6]; 40 mg/kg intravenous): did not significantly extend
- sleep latency induced by sodium thiopental, compared with the vehicle control group ([6]; 40 mg/kg intravenous): no significant reduction
- duration of sleeping induced by sodium thiopental, compared with the vehicle control group ([6]; 80 mg/kg intravenous): significantly extended
- sleep latency induced by sodium thiopental, compared with the vehicle control group ([6]; 80 mg/kg intravenous): no significant reduction
- number of mice with loss in righting reflex ([7]; individual dose of 160 mg/kg intravenous): No loss in righting reflex
- loss in righting reflex ([7]; individual dose of 40 or 80 mg/kg intravenous): No loss in righting reflex
- spontaneous activity compared with the vehicle control group ([8]; 40 mg/kg intravenous): significant reduction in spontaneous activity was not observed
- recovery of spontaneous activity ([8]; 80 mg/kg intravenous): gradually become normal after 2 hours
- spontaneous activity compared with the vehicle control group ([8]; 80 mg/kg intravenous): reduced significantly at 0.5 and 1 hour
- recovery of spontaneous activity ([8]; 160 mg/kg intravenous): gradually become normal after 3 hours
- spontaneous activity compared with the vehicle control group ([8]; 160 mg/kg intravenous): reduced significantly at 0.5, 1 and 2 hours
- ED50 (half effective dose) [9, 12]: 31.0 mg/kg
- 95% CI of ED50 ([9]; oral gavage twice): 43.3˜22.2 mg/kg
- ED50 (half effective dose) [10, 12]: 42.0 mg/kg
- 95% CI of ED50 ([10]; oral gavage twice): 50.9˜34.6 mg/kg
